# Measurements as given in the supplement of paper PMC8671470.
# System: KCL-22
# Assay: cell viability (% survival relative to DMSO control, bortezomib = 0%); higher = less cytotoxic
# Conditions: 1 nM; 72 h
# Procedure, shortened: (§1)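 Percent survival is reported as the mean of duplicate wells. Cells from 10 AML and 5 CML lines were plated in 384-well plates containing compounds at 1, 10, 100, 1000 or 10000 nM and kept for 72 h at 37 °C in 5% CO2. Readout used CellTiter-Glo luminescence, scaled so that vehicle equals 100% and a 10 µM positive control equals 0%.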
row,SMILES,cell viability [%]
1,COc1ccc2c(C(=S)N(C)CC(=O)O)cccc2c1C(F)(F)F [Tolrestat],94.8
2,CC[C@@]1(O)C(=O)OCc2c1cc1n(c2=O)Cc2cc3c(CN(C)C)c(O)ccc3nc2-1 [Topotecan],97.2
3,CCC(=O)N1CCN(c2ccc(-n3c(=O)ccc4cnc5ccc(-c6cnc7ccccc7c6)cc5c43)cc2C(F)(F)F)CC1 [Torin1],102

# Same assay, conditions: 10 nM; 72 h
row,SMILES,cell viability [%]
1,O[C@H]1[C@H]2[C@H](O)CCCN2C[C@H]1O [Swainsonine],92.3
2,Cc1coc2c1C(=O)C(=O)c1c-2ccc2c1CCCC2(C)C [Tanshinone IIA],98.8
3,Cc1cn([C@H]2C[C@H](O)[C@@H](COP(=O)(O)OP(=O)(O)O)O2)c(=O)[nH]c1=O [Thymidine diphosphate],89.8
4,CN(C)c1cc(NC(=O)CNC(C)(C)C)c(O)c2c1C[C@H]1C[C@H]3[C@H](N(C)C)C(=O)C(C(N)=O)C(=O)[C@@]3(O)C(=O)C1C2=O (some centres not stated) [Tigecycline],95
5,COc1ccc2c(C(=S)N(C)CC(=O)O)cccc2c1C(F)(F)F [Tolrestat],103
6,CC[C@@]1(O)C(=O)OCc2c1cc1n(c2=O)Cc2cc3c(CN(C)C)c(O)ccc3nc2-1 [Topotecan],97.8
7,CCC(=O)N1CCN(c2ccc(-n3c(=O)ccc4cnc5ccc(-c6cnc7ccccc7c6)cc5c43)cc2C(F)(F)F)CC1 [Torin1],110

# Same assay, conditions: 100 nM; 72 h
row,SMILES,cell viability [%]
1,O[C@H]1[C@H]2[C@H](O)CCCN2C[C@H]1O [Swainsonine],102
2,Cc1coc2c1C(=O)C(=O)c1c-2ccc2c1CCCC2(C)C [Tanshinone IIA],107
3,Cc1cn([C@H]2C[C@H](O)[C@@H](COP(=O)(O)OP(=O)(O)O)O2)c(=O)[nH]c1=O [Thymidine diphosphate],98.3
4,CN(C)c1cc(NC(=O)CNC(C)(C)C)c(O)c2c1C[C@H]1C[C@H]3[C@H](N(C)C)C(=O)C(C(N)=O)C(=O)[C@@]3(O)C(=O)C1C2=O (some centres not stated) [Tigecycline],96.4
5,COc1ccc2c(C(=S)N(C)CC(=O)O)cccc2c1C(F)(F)F [Tolrestat],105
6,CC[C@@]1(O)C(=O)OCc2c1cc1n(c2=O)Cc2cc3c(CN(C)C)c(O)ccc3nc2-1 [Topotecan],27.9
7,CCC(=O)N1CCN(c2ccc(-n3c(=O)ccc4cnc5ccc(-c6cnc7ccccc7c6)cc5c43)cc2C(F)(F)F)CC1 [Torin1],87.8

# Same assay, conditions: 1000 nM; 72 h
row,SMILES,cell viability [%]
1,O[C@H]1[C@H]2[C@H](O)CCCN2C[C@H]1O [Swainsonine],98.1
2,Cc1coc2c1C(=O)C(=O)c1c-2ccc2c1CCCC2(C)C [Tanshinone IIA],105
3,Cc1cn([C@H]2C[C@H](O)[C@@H](COP(=O)(O)OP(=O)(O)O)O2)c(=O)[nH]c1=O [Thymidine diphosphate],97.7
4,CN(C)c1cc(NC(=O)CNC(C)(C)C)c(O)c2c1C[C@H]1C[C@H]3[C@H](N(C)C)C(=O)C(C(N)=O)C(=O)[C@@]3(O)C(=O)C1C2=O (some centres not stated) [Tigecycline],94.6
5,COc1ccc2c(C(=S)N(C)CC(=O)O)cccc2c1C(F)(F)F [Tolrestat],106
6,CC[C@@]1(O)C(=O)OCc2c1cc1n(c2=O)Cc2cc3c(CN(C)C)c(O)ccc3nc2-1 [Topotecan],5.33
7,CCC(=O)N1CCN(c2ccc(-n3c(=O)ccc4cnc5ccc(-c6cnc7ccccc7c6)cc5c43)cc2C(F)(F)F)CC1 [Torin1],10.9

# Same assay, conditions: 10000 nM; 72 h
row,SMILES,cell viability [%]
1,O[C@H]1[C@H]2[C@H](O)CCCN2C[C@H]1O [Swainsonine],89.9
2,Cc1coc2c1C(=O)C(=O)c1c-2ccc2c1CCCC2(C)C [Tanshinone IIA],59.9
3,Cc1cn([C@H]2C[C@H](O)[C@@H](COP(=O)(O)OP(=O)(O)O)O2)c(=O)[nH]c1=O [Thymidine diphosphate],85.6
4,CN(C)c1cc(NC(=O)CNC(C)(C)C)c(O)c2c1C[C@H]1C[C@H]3[C@H](N(C)C)C(=O)C(C(N)=O)C(=O)[C@@]3(O)C(=O)C1C2=O (some centres not stated) [Tigecycline],79.4
5,COc1ccc2c(C(=S)N(C)CC(=O)O)cccc2c1C(F)(F)F [Tolrestat],106
6,CC[C@@]1(O)C(=O)OCc2c1cc1n(c2=O)Cc2cc3c(CN(C)C)c(O)ccc3nc2-1 [Topotecan],1.56
7,CCC(=O)N1CCN(c2ccc(-n3c(=O)ccc4cnc5ccc(-c6cnc7ccccc7c6)cc5c43)cc2C(F)(F)F)CC1 [Torin1],8.17

# System: KU-812
# Assay: as above
# Conditions: 1 nM; 72 h
# Procedure, shortened: as §1
row,SMILES,cell viability [%]
1,O[C@H]1[C@H]2[C@H](O)CCCN2C[C@H]1O [Swainsonine],104
2,Cc1coc2c1C(=O)C(=O)c1c-2ccc2c1CCCC2(C)C [Tanshinone IIA],89.8
3,Cc1cn([C@H]2C[C@H](O)[C@@H](COP(=O)(O)OP(=O)(O)O)O2)c(=O)[nH]c1=O [Thymidine diphosphate],88.2
4,CN(C)c1cc(NC(=O)CNC(C)(C)C)c(O)c2c1C[C@H]1C[C@H]3[C@H](N(C)C)C(=O)C(C(N)=O)C(=O)[C@@]3(O)C(=O)C1C2=O (some centres not stated) [Tigecycline],102
5,COc1ccc2c(C(=S)N(C)CC(=O)O)cccc2c1C(F)(F)F [Tolrestat],88.6
6,CC[C@@]1(O)C(=O)OCc2c1cc1n(c2=O)Cc2cc3c(CN(C)C)c(O)ccc3nc2-1 [Topotecan],95.5
7,CCC(=O)N1CCN(c2ccc(-n3c(=O)ccc4cnc5ccc(-c6cnc7ccccc7c6)cc5c43)cc2C(F)(F)F)CC1 [Torin1],97.7

# Same assay, conditions: 10 nM; 72 h
row,SMILES,cell viability [%]
1,O[C@H]1[C@H]2[C@H](O)CCCN2C[C@H]1O [Swainsonine],100
2,Cc1coc2c1C(=O)C(=O)c1c-2ccc2c1CCCC2(C)C [Tanshinone IIA],95.2
3,Cc1cn([C@H]2C[C@H](O)[C@@H](COP(=O)(O)OP(=O)(O)O)O2)c(=O)[nH]c1=O [Thymidine diphosphate],93.6
4,CN(C)c1cc(NC(=O)CNC(C)(C)C)c(O)c2c1C[C@H]1C[C@H]3[C@H](N(C)C)C(=O)C(C(N)=O)C(=O)[C@@]3(O)C(=O)C1C2=O (some centres not stated) [Tigecycline],97
5,COc1ccc2c(C(=S)N(C)CC(=O)O)cccc2c1C(F)(F)F [Tolrestat],118
6,CC[C@@]1(O)C(=O)OCc2c1cc1n(c2=O)Cc2cc3c(CN(C)C)c(O)ccc3nc2-1 [Topotecan],99.6
7,CCC(=O)N1CCN(c2ccc(-n3c(=O)ccc4cnc5ccc(-c6cnc7ccccc7c6)cc5c43)cc2C(F)(F)F)CC1 [Torin1],87.1

# Same assay, conditions: 100 nM; 72 h
row,SMILES,cell viability [%]
1,O[C@H]1[C@H]2[C@H](O)CCCN2C[C@H]1O [Swainsonine],100
2,Cc1coc2c1C(=O)C(=O)c1c-2ccc2c1CCCC2(C)C [Tanshinone IIA],93.1
3,Cc1cn([C@H]2C[C@H](O)[C@@H](COP(=O)(O)OP(=O)(O)O)O2)c(=O)[nH]c1=O [Thymidine diphosphate],109
4,CN(C)c1cc(NC(=O)CNC(C)(C)C)c(O)c2c1C[C@H]1C[C@H]3[C@H](N(C)C)C(=O)C(C(N)=O)C(=O)[C@@]3(O)C(=O)C1C2=O (some centres not stated) [Tigecycline],95.8
5,COc1ccc2c(C(=S)N(C)CC(=O)O)cccc2c1C(F)(F)F [Tolrestat],99.8
6,CC[C@@]1(O)C(=O)OCc2c1cc1n(c2=O)Cc2cc3c(CN(C)C)c(O)ccc3nc2-1 [Topotecan],13.1
7,CCC(=O)N1CCN(c2ccc(-n3c(=O)ccc4cnc5ccc(-c6cnc7ccccc7c6)cc5c43)cc2C(F)(F)F)CC1 [Torin1],73.1

# Same assay, conditions: 1000 nM; 72 h
row,SMILES,cell viability [%]
1,O[C@H]1[C@H]2[C@H](O)CCCN2C[C@H]1O [Swainsonine],99.8
2,Cc1coc2c1C(=O)C(=O)c1c-2ccc2c1CCCC2(C)C [Tanshinone IIA],106
3,Cc1cn([C@H]2C[C@H](O)[C@@H](COP(=O)(O)OP(=O)(O)O)O2)c(=O)[nH]c1=O [Thymidine diphosphate],96.9
4,CN(C)c1cc(NC(=O)CNC(C)(C)C)c(O)c2c1C[C@H]1C[C@H]3[C@H](N(C)C)C(=O)C(C(N)=O)C(=O)[C@@]3(O)C(=O)C1C2=O (some centres not stated) [Tigecycline],94.4
5,COc1ccc2c(C(=S)N(C)CC(=O)O)cccc2c1C(F)(F)F [Tolrestat],90.8
6,CC[C@@]1(O)C(=O)OCc2c1cc1n(c2=O)Cc2cc3c(CN(C)C)c(O)ccc3nc2-1 [Topotecan],3.16
7,CCC(=O)N1CCN(c2ccc(-n3c(=O)ccc4cnc5ccc(-c6cnc7ccccc7c6)cc5c43)cc2C(F)(F)F)CC1 [Torin1],24.4

# Same assay, conditions: 10000 nM; 72 h
row,SMILES,cell viability [%]
1,O[C@H]1[C@H]2[C@H](O)CCCN2C[C@H]1O [Swainsonine],109
2,Cc1coc2c1C(=O)C(=O)c1c-2ccc2c1CCCC2(C)C [Tanshinone IIA],86.2
3,Cc1cn([C@H]2C[C@H](O)[C@@H](COP(=O)(O)OP(=O)(O)O)O2)c(=O)[nH]c1=O [Thymidine diphosphate],102
4,CN(C)c1cc(NC(=O)CNC(C)(C)C)c(O)c2c1C[C@H]1C[C@H]3[C@H](N(C)C)C(=O)C(C(N)=O)C(=O)[C@@]3(O)C(=O)C1C2=O (some centres not stated) [Tigecycline],86.8
5,COc1ccc2c(C(=S)N(C)CC(=O)O)cccc2c1C(F)(F)F [Tolrestat],104
6,CC[C@@]1(O)C(=O)OCc2c1cc1n(c2=O)Cc2cc3c(CN(C)C)c(O)ccc3nc2-1 [Topotecan],1.45
7,CCC(=O)N1CCN(c2ccc(-n3c(=O)ccc4cnc5ccc(-c6cnc7ccccc7c6)cc5c43)cc2C(F)(F)F)CC1 [Torin1],20.1

# System: NOMO-1
# Assay: as above
# Conditions: 1 nM; 72 h
# Procedure, shortened: as §1
row,SMILES,cell viability [%]
1,O[C@H]1[C@H]2[C@H](O)CCCN2C[C@H]1O [Swainsonine],109
2,Cc1coc2c1C(=O)C(=O)c1c-2ccc2c1CCCC2(C)C [Tanshinone IIA],103
3,Cc1cn([C@H]2C[C@H](O)[C@@H](COP(=O)(O)OP(=O)(O)O)O2)c(=O)[nH]c1=O [Thymidine diphosphate],98.1
4,CN(C)c1cc(NC(=O)CNC(C)(C)C)c(O)c2c1C[C@H]1C[C@H]3[C@H](N(C)C)C(=O)C(C(N)=O)C(=O)[C@@]3(O)C(=O)C1C2=O (some centres not stated) [Tigecycline],106
5,COc1ccc2c(C(=S)N(C)CC(=O)O)cccc2c1C(F)(F)F [Tolrestat],97.2
6,CC[C@@]1(O)C(=O)OCc2c1cc1n(c2=O)Cc2cc3c(CN(C)C)c(O)ccc3nc2-1 [Topotecan],98.7
7,CCC(=O)N1CCN(c2ccc(-n3c(=O)ccc4cnc5ccc(-c6cnc7ccccc7c6)cc5c43)cc2C(F)(F)F)CC1 [Torin1],109

# Same assay, conditions: 10 nM; 72 h
row,SMILES,cell viability [%]
1,O[C@H]1[C@H]2[C@H](O)CCCN2C[C@H]1O [Swainsonine],103
2,Cc1coc2c1C(=O)C(=O)c1c-2ccc2c1CCCC2(C)C [Tanshinone IIA],104
3,Cc1cn([C@H]2C[C@H](O)[C@@H](COP(=O)(O)OP(=O)(O)O)O2)c(=O)[nH]c1=O [Thymidine diphosphate],99.8
4,CN(C)c1cc(NC(=O)CNC(C)(C)C)c(O)c2c1C[C@H]1C[C@H]3[C@H](N(C)C)C(=O)C(C(N)=O)C(=O)[C@@]3(O)C(=O)C1C2=O (some centres not stated) [Tigecycline],97.7
